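Briefly, cells in 96-well plates were exposed to five compound concentrations for 48 h, and endpoints were estimated by linear interpolation. The concentration for 50% growth inhibition is given as GI50. TGI marks complete inhibition of growth.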
Assays:
Test in all cases: DTP human tumour cell line panel, 48 h
SR leukemia = tested on: SR leukemia
U251 CNS = tested on: U251 CNS
RXF 393 renal = tested on: RXF 393 renal
IGROV1 ovarian = tested on: IGROV1 ovarian
PC-3 prostate = tested on: PC-3 prostate
CAKI-1 renal = tested on: CAKI-1 renal
SK-MEL-2 melanoma = tested on: SK-MEL-2 melanoma
MDA-MB-231 breast = tested on: MDA-MB-231 breast
K-562 leukemia = tested on: K-562 leukemia
SNB-19 CNS = tested on: SNB-19 CNS

Structure (SMILES)	GI50 (SR leukemia)	GI50 (U251 CNS)	TGI (U251 CNS)	GI50 (RXF 393 renal)	TGI (RXF 393 renal)	GI50 (IGROV1 ovarian)	TGI (IGROV1 ovarian)	GI50 (PC-3 prostate)	TGI (PC-3 prostate)	GI50 (CAKI-1 renal)	TGI (CAKI-1 renal)	GI50 (SK-MEL-2 melanoma)	TGI (SK-MEL-2 melanoma)	GI50 (MDA-MB-231 breast)	TGI (MDA-MB-231 breast)	GI50 (K-562 leukemia)	TGI (K-562 leukemia)	TGI (SR leukemia)	GI50 (SNB-19 CNS)	TGI (SNB-19 CNS)
O=C(c1cccs1)c1c(C(F)(F)F)n([O-])c2cc(Cl)c(Cl)cc2[n+]1=O	< 21.4 nM	269 nM	1660 nM	1790 nM	3230 nM	73 nM	1070 nM	1370 nM	2810 nM	1530 nM	2920 nM	2700 nM	> 100000 nM	647 nM	2070 nM	344 nM	17400 nM			
CC(C)[C@@H]1CC[C@]2(CO2)[C@@H]2C(=O)OCC(C(=O)O)=C[C@H]21	552 nM	343 nM	> 100000 nM	300 nM	1370 nM	442 nM	8730 nM	677 nM	> 100000 nM	411 nM	> 100000 nM	208 nM	407 nM	363 nM	> 75600 nM	334 nM	> 100000 nM	4240 nM	379 nM	> 27100 nM
COc1ccc(C(O)c2cc3c(N)c(C(=O)Nc4cccc5ccccc45)sc3nc2C)cc1 (stereo not drawn)	141 nM	372 nM	> 42500 nM	3230 nM	> 100000 nM	574 nM	> 100000 nM	470 nM	> 100000 nM	352 nM	> 100000 nM	811 nM	> 43200 nM	393 nM		314 nM	> 53900 nM		469 nM	> 100000 nM
CCSCC1CC(O)(c2ccccc2)C(c2ccccc2)C(c2ccc(F)cc2)O1 (stereo not drawn)	1980 nM	1750 nM	3910 nM	1870 nM	3570 nM	2680 nM	7120 nM	1950 nM	9060 nM	1580 nM	3480 nM	1980 nM	4000 nM	2580 nM	8300 nM	2110 nM	6530 nM	5850 nM	2050 nM	7600 nM
Cc1ccc(NC(=O)c2cc(S(=O)(=O)Nc3nnc(-c4ccccc4)c(-c4ccccc4)n3)c(SCc3ccccc3)cc2Cl)cc1	36000 nM	13700 nM	28700 nM	25600 nM	47200 nM	26900 nM	93700 nM	18200 nM	49100 nM	21200 nM	40700 nM	49000 nM	> 100000 nM	19400 nM	42200 nM	23800 nM	> 100000 nM	> 100000 nM	20400 nM	57100 nM
Fc1ccc(NC(c2ccc(F)cc2)C2CCN(CCCCc3ccccc3)CC2)cc1 (stereo not drawn)	1570 nM	1670 nM	3060 nM	1720 nM	3170 nM	2180 nM	5170 nM	1820 nM	3760 nM			1810 nM	3540 nM	1580 nM	3130 nM	2070 nM	4960 nM	3890 nM	1990 nM	4900 nM

From PubChem BioAssay (NCI)
